Results published in US4442090A, “Absorption-promoting compounds, compositions thereof with pharmaceuticals and/or bases for rectal administration and method of use” (Kyoto Yakuhin Kogyo Kabushiki Kaisha, priority 1980, dated 1984).
One block for each compound: values may come before it.

Legend:
[1] = Urinary excretions of β-lactam antibiotics after rectal suppository (rabbit); assay type: in vivo; settings: Compound (I) 5%, Witepsol H-15
Protocol: The absorption into the circulation through the rectum of the rectal suppositories thus prepared was determined by measuring urinary excretion of the pharmacologically-active substance.
Thus, Sarcina lutea and Bacillus subtilis were used as assay organisms for penicillins and cephalosporins, respectively, and the assays were performed by the paper disk method (cultivation at 37° C. for from 15 to 20 hours).

[2] = Urinary excretions of AB-PC after administration of AB-PC rectal suppository (human); assay type: in vivo; settings: AB-PC 125 mg (potency); for Urinary excretions of AB-PC (%) (0-6 hr.): added compound 10%, Witepsol H-15, % of dose; for Urinary excretions (%) 0-2 (hr.) / Urinary excretions (%) 2-4 (hr.) / Urinary excretions (%) 4-6 (hr.) / Urinary excretions (%) Total (0-6 hr.): Compound (I) 10%, Witepsol H-15, Table 3
Protocol: The thus-obtained suppositories were administered to healthy adult male humans from the anus, and the urinary excretions of AB-PC were determined.

SMILES: CCCCCCCCCCCC(=O)N[C@H](C(=O)O)C(C)C [Compound 25-Na, N--Lauroyl-L-valine]
Urinary excretions (%) 0-2 hr. ([1]; Cefmetazole 125 mg (potency)): 45.0%
Urinary excretions (%) 2-4 hr. ([1]; Cefmetazole 125 mg (potency)): 10.0%
Urinary excretions (%) 4-6 hr. ([1]; Cefmetazole 125 mg (potency)): 2.0%
Urinary excretions (%) Total (0-6 hr.) ([1]; Cefmetazole 125 mg (potency)): 57.0%

SMILES: O=C(O)CCCCCCCCCC(=O)O [Compound 1-Na, 1,9-Nonamethylendicarboxylic acid]
Urinary excretions (%) 0-2 hr. ([1]; Cephalothin 125 mg (potency)): 20.5%
Urinary excretions (%) 2-4 hr. ([1]; Cephalothin 125 mg (potency)): 3.0%
Urinary excretions (%) 4-6 hr. ([1]; Cephalothin 125 mg (potency)): 0.2%
Urinary excretions (%) Total (0-6 hr.) ([1]; Cephalothin 125 mg (potency)): 23.7%
Urinary excretions of AB-PC (%) (0-6 hr.) [2]: 15.2%

SMILES: CCCCCCCCCCNC(=O)/C=C\C(=O)O [Compound 13-Na, N--(n-Decyl)maleamic acid]
Urinary excretions (%) 0-2 hr. ([1]; FK-749 125 mg (potency)): 39.1%
Urinary excretions (%) 2-4 hr. ([1]; FK-749 125 mg (potency)): 18.0%
Urinary excretions (%) 4-6 hr. ([1]; FK-749 125 mg (potency)): 2.1%
Urinary excretions (%) Total (0-6 hr.) ([1]; FK-749 125 mg (potency)): 59.2%

SMILES: CCCCCCCCCC(=O)N[C@H](C(=O)O)C(C)C [Compound 24-Na, N--Caprinoyl-L-valine]
Urinary excretions (%) 0-2 hr. ([1]; Cefotaxime 125 mg (potency)): 31.5%
Urinary excretions (%) 2-4 hr. ([1]; Cefotaxime 125 mg (potency)): 10.0%
Urinary excretions (%) 4-6 hr. ([1]; Cefotaxime 125 mg (potency)): 0.8%
Urinary excretions (%) Total (0-6 hr.) ([1]; Cefotaxime 125 mg (potency)): 42.3%
Urinary excretions (%) 0-2 hr. ([1]; FK-749 125 mg (potency)): 45.0%
Urinary excretions (%) 2-4 hr. ([1]; FK-749 125 mg (potency)): 5.6%
Urinary excretions (%) 4-6 hr. ([1]; FK-749 125 mg (potency)): 2.5%
Urinary excretions (%) Total (0-6 hr.) ([1]; FK-749 125 mg (potency)): 53.1%
Urinary excretions (%) 0-2 (hr.) [2]: 18.0%
Urinary excretions (%) 2-4 (hr.) [2]: 5.1%
Urinary excretions (%) 4-6 (hr.) [2]: 1.0%
Urinary excretions (%) Total (0-6 hr.) [2]: 23.1%

SMILES: O=C(O)CCCCCC(=O)O [Pimelic acid Na, Pimelic acid, reference compound]
Urinary excretions of AB-PC (%) (0-6 hr.) [2]: 6.0%

SMILES: O=C(O)Cc1ccccc1 [Phenylacetic acid Na, Phenylacetic acid, reference compound]
Urinary excretions of AB-PC (%) (0-6 hr.) [2]: 5.8%

SMILES: O=C(O)c1ccccc1 [Benzoic acid Na, Benzoic acid, reference compound]
Urinary excretions of AB-PC (%) (0-6 hr.) [2]: 5.6%

SMILES: CCCCCCOc1ccc(C(=O)O)cc1 [Compound 6-Na, p-Hexyloxybenzoic acid]
Urinary excretions (%) 0-2 hr. ([1]; SCE-1365 125 mg (potency)): 45.0%
Urinary excretions (%) 2-4 hr. ([1]; SCE-1365 125 mg (potency)): 18.2%
Urinary excretions (%) 4-6 hr. ([1]; SCE-1365 125 mg (potency)): 1.8%
Urinary excretions (%) Total (0-6 hr.) ([1]; SCE-1365 125 mg (potency)): 65.0%
Urinary excretions of AB-PC (%) (0-6 hr.) [2]: 21.2%

Results, then the compound that gave them:

Urinary excretions (%) 0-2 hr. ([1]; Cefmetazole 125 mg (potency)): 45.0%
Urinary excretions (%) 2-4 hr. ([1]; Cefmetazole 125 mg (potency)): 21.1%
Urinary excretions (%) 4-6 hr. ([1]; Cefmetazole 125 mg (potency)): 3.0%
Urinary excretions (%) Total (0-6 hr.) ([1]; Cefmetazole 125 mg (potency)): 64.6%
SMILES: CCCCCCCC(=O)Nc1ccc(C(=O)O)cc1 [Compound 17-Na, N--(n-Caprylyl)-4-aminobenzoic acid]

Urinary excretions (%) 0-2 hr. ([1]; 6059-S 125 mg (potency)): 42.2%
Urinary excretions (%) 2-4 hr. ([1]; 6059-S 125 mg (potency)): 18.8%
Urinary excretions (%) 4-6 hr. ([1]; 6059-S 125 mg (potency)): 3.6%
Urinary excretions (%) Total (0-6 hr.) ([1]; 6059-S 125 mg (potency)): 64.6%
SMILES: CCCCCCCC(=O)N(C)c1ccc(C(=O)O)cc1 [Compound 18-Na, N--(n-Caprylyl)-4-methylaminobenzoic acid]

Urinary excretions (%) 0-2 hr. ([1]; Cefotiam 125 mg (potency)): 35.2%
Urinary excretions (%) 2-4 hr. ([1]; Cefotiam 125 mg (potency)): 6.2%
Urinary excretions (%) 4-6 hr. ([1]; Cefotiam 125 mg (potency)): 0.5%
Urinary excretions (%) Total (0-6 hr.) ([1]; Cefotiam 125 mg (potency)): 41.9%
Urinary excretions (%) 0-2 (hr.) [2]: 22.0%
Urinary excretions (%) 2-4 (hr.) [2]: 4.1%
Urinary excretions (%) 4-6 (hr.) [2]: 0.7%
Urinary excretions (%) Total (0-6 hr.) [2]: 26.8%
SMILES: CCCCCCCCCCCCCCCC(=O)N[C@@H](CC(=O)O)C(=O)O [Compound 27-Na, N--Palmitoyl-L-aspartic acid]

Urinary excretions (%) 0-2 (hr.) [2]: 16.8%
Urinary excretions (%) 2-4 (hr.) [2]: 2.0%
Urinary excretions (%) 4-6 (hr.) [2]: 1.1%
Urinary excretions (%) Total (0-6 hr.) [2]: 19.9%
SMILES: CCCCCC(=O)N[C@@H](Cc1ccccc1)C(=O)O [Compound 21-Na, N--Caproyl-L-phenylalanine]

Urinary excretions (%) 0-2 hr. ([1]; Cefazolin 125 mg (potency)): 40.5%
Urinary excretions (%) 2-4 hr. ([1]; Cefazolin 125 mg (potency)): 16.0%
Urinary excretions (%) 4-6 hr. ([1]; Cefazolin 125 mg (potency)): 2.0%
Urinary excretions (%) Total (0-6 hr.) ([1]; Cefazolin 125 mg (potency)): 58.5%
Urinary excretions (%) 0-2 hr. ([1]; Cephalothin 125 mg (potency)): 19.5%
Urinary excretions (%) 2-4 hr. ([1]; Cephalothin 125 mg (potency)): 2.5%
Urinary excretions (%) 4-6 hr. ([1]; Cephalothin 125 mg (potency)): 0.2%
Urinary excretions (%) Total (0-6 hr.) ([1]; Cephalothin 125 mg (potency)): 22.2%
SMILES: CCCCCC(=O)N[C@@H](Cc1c[nH]c2ccccc12)C(=O)O [Compound 22-Na, N--Caproyl-L-tryptophan]

Urinary excretions of AB-PC (%) (0-6 hr.) [2]: 2.9%
SMILES: CCCCCCCC(=O)OCC [Ethyl caprylate, reference compound]

Urinary excretions of AB-PC (%) (0-6 hr.) [2]: 9.6%
SMILES: O=C(O)c1ccccc1O [Salicylic acid Na, Salicylic acid, reference compound]

Urinary excretions (%) 0-2 hr. ([1]; Cefsulodin 125 mg (potency)): 41.1%
Urinary excretions (%) 2-4 hr. ([1]; Cefsulodin 125 mg (potency)): 8.2%
Urinary excretions (%) 4-6 hr. ([1]; Cefsulodin 125 mg (potency)): 0.5%
Urinary excretions (%) Total (0-6 hr.) ([1]; Cefsulodin 125 mg (potency)): 49.8%
Urinary excretions (%) 0-2 hr. ([1]; Sulbenicillin 125 mg (potency)): 40.0%
Urinary excretions (%) 2-4 hr. ([1]; Sulbenicillin 125 mg (potency)): 5.1%
Urinary excretions (%) 4-6 hr. ([1]; Sulbenicillin 125 mg (potency)): 1.0%
Urinary excretions (%) Total (0-6 hr.) ([1]; Sulbenicillin 125 mg (potency)): 46.2%
Urinary excretions (%) 0-2 (hr.) [2]: 26.1%
Urinary excretions (%) 2-4 (hr.) [2]: 3.0%
Urinary excretions (%) 4-6 (hr.) [2]: 0.9%
Urinary excretions (%) Total (0-6 hr.) [2]: 30.0%
SMILES: CCCCCCCCCCCCCC(=O)N[C@H](C(=O)O)[C@@H](C)O [Compound 26-Na, N--Myristoyl-L-threonine]

Urinary excretions of AB-PC (%) (0-6 hr.) [2]: 3.6%
SMILES: CC(=O)O [Acetic acid Na, Acetic acid, reference compound]
